Source: patent US20240286994A1, “NOVEL SQUARAMIDE DERIVATIVE AND USE THEREOF” (PUSAN NATIONAL UNIVERSITY INDUSTRY-UNIVERSITY COOPERATION …, priority 2021, published 2024)

Tested on: eIF2α phosphorylation
Assay: Phospho-eIF2α (Ser51) sandwich ELISA in K562 cells
Format: cell-based
Conditions: serum-free RPMI, 10 μM compound, 6 hours; for Multiple changes in eIF2α phosphorylation at 10 μM (absorbance standardized to control = 1): DMSO-treated control set to 1; for fold induction at 10 µM: Homo sapiens, DMSO-treated control set to 1, read-out: Multiple changes in eIF2α phosphorylation at 10 μM (absorbance standardized to control = 1)
Protocol: Pathscan Phospho-eIF2a (Ser51) Sandwich ELISA Kit #7286 from Cell signaling was used. The K562 cell line was cultured in serum-free RPMI medium at 37° C. in the presence of 5% CO2. Cells were treated with test compounds at a concentration of 10 μM. Six hours after compound treatment, the cells were lysed with a lysis buffer included in the kit to obtain 50 μg of protein by quantification. Afterwards, ELISA assay was performed according to the manufacturer's protocol to obtain absorbance. The absorbance for each obtained compound was standardized to a value of which the control (DMSO-treated) is set to 1.

| Structure (SMILES) | Multiple changes in eIF2α phosphorylation at 10 μM (absorbance standardized to control = 1) | fold induction at 10 µM |
| --- | --- | --- |
| CC(C)(C)c1ccccc1Nc1c(N[C@H]2CC[C@H](Oc3ccc(S(C)(=O)=O)cc3)CC2)c(=O)c1=O [Compound 77, 3-((2-(tert-Butyl)phenyl)amino)-4-(((1,4-trans)-4-(4-(methylsulfonyl)phenoxy)cyclohexyl)amino)cyclobut-3-ene-1,2-dione] | 1.70 |  |
| CC(C)(C)c1cccc(Nc2c(N[C@H]3CC[C@H](Oc4ccc(C(F)(F)F)cc4)CC3)c(=O)c2=O)c1 [Compound 28, 3-((3-(tert-Butyl)phenyl)amino)-4-(((1,4-trans)-4-(4-(trifluoromethyl)phenoxy)cyclohexyl)amino)cyclobut-3-ene-1,2-dione] | 1.92 |  |
| CS(=O)(=O)c1ccc(O[C@H]2CC[C@H](Nc3c(Nc4ccccc4F)c(=O)c3=O)CC2)cc1 [Compound 65, 3-((2-Fluorophenyl)amino)-4-(((1,4-trans)-4-(4-(methylsulfonyl)phenoxy)cyclohexyl)amino)cyclobut-3-ene-1,2-dione] |  | 1.07 |
| COc1cccc(Nc2c(N[C@H]3CC[C@H](Oc4ccc(C(F)(F)F)cc4)CC3)c(=O)c2=O)c1 [Compound 33, 3-((3-Methoxyphenyl)amino)-4-(((1,4-trans)-4-(4-(trifluoromethyl)phenoxy)cyclohexyl)amino)cyclobut-3-ene-1,2-dione] |  | 0.83 |
